This is an account of results in patent US20170273922A1, “UREA AND BIS-UREA BASED COMPOUNDS AND ANALOGUES THEREOF USEFUL IN THE TREATMENT OF ANDROGEN RECEPTOR MEDIATED DISEASES OR DISORDERS” (THE ROYAL INSTITUTION FOR THE ADVACEMENT OF LEARNING/MCGILL …, priority 2014, published 2017).

Structures are written as SMILES.

The target of one data set is T1, IRF3DBD-AR(1-547) (Homo sapiens, UniProt P10275).
T1 construct: IRF3-AR(1-547) is the fusion of IRF3 DBD with the AR NTD (1-547); expressed in transfected cells
T1 sequence (P10275 1-547): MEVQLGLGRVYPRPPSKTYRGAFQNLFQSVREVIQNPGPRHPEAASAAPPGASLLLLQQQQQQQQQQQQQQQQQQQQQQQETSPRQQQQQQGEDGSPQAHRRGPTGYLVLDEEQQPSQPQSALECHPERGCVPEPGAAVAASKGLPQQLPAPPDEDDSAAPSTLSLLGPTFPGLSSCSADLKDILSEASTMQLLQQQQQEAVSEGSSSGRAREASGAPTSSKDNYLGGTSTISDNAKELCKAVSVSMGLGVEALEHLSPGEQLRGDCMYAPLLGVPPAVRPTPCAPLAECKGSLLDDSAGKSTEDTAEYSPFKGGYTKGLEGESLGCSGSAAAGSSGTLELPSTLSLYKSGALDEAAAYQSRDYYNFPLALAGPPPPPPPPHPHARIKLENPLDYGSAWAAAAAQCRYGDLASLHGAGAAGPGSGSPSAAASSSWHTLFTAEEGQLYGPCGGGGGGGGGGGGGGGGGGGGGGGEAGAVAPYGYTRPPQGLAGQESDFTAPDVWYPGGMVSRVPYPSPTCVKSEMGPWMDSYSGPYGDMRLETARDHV
Kind of data set: IRF3DBD-AR(1-547) ISRE-luc reporter assay. In kind it is cell-based. Particulars: PC3 cells, 24 h. A general note: Reporter assays use an easily measured gene product as a stand-in for the process of interest.

The next data set deals with T2, full-length IRF3 (Homo sapiens, UniProt Q14653).
T2 construct: co-transfected with full-length IRF3 or IRF3DBD-AR(1-547) expressing plasmids; expressed in transfected cells
T2 sequence (Q14653 1-427): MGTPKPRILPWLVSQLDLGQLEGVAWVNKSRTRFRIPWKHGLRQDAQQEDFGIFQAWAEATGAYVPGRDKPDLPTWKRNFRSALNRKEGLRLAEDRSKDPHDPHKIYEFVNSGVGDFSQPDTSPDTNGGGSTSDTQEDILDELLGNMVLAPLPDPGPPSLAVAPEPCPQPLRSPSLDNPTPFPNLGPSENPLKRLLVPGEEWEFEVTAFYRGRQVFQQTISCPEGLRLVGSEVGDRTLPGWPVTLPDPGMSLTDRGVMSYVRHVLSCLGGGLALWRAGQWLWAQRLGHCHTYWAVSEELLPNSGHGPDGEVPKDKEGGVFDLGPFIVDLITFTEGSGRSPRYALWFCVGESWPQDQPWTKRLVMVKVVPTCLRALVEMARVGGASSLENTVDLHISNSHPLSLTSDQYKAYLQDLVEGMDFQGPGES
Kind of data set: Full-length IRF3 ISRE-luc reporter assay. In kind it is cell-based. Particulars: PC3 cells, 24 h. The source says: For all of the others, cells were co-transfected with full-length IRF3 or IRF3DBD-AR(1-547) expressing plasmids and with the ISRE-luc reporter and pRL-TK plasmids. […] As IRF3DBD-AR(1-547) contains the DBD of IRF3, ISRE-luc reporter instead of the PSA-luc reporter was used in our assays.
HEK293 cells were co-transfected with IRF3DBD(1-133) or IRF3DBD-AR(1-547) or IRF3DBD-AR(181-547) or full-length IRF3 expressing plasmids and with the ISRE-luc reporter and the Renilla luciferase pRL-TK plasmids.
Here, IRF3-AR(1-547) is the fusion of IRF3 DBD with the AR NTD (1-547). […] The plasmids expressing IRF3-AR(1-547) (A) or wild-type IRF3 (B) or IRF3 DBD (for NT) as well as ISRE-luc and pRL-TK were transiently transfected into PC3 cells. […] Bic, bicalutamide; EPI, EPI-001.

In the next data set the test system is LNCaP cells. The data set can be described thus: MTT assay (cytotoxicity), LNCaP cells. In kind it is cell-based. In short, it runs like this: (§1)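 Cells grown in RPMI 1640 with 10% FBS were seeded at 6-7×10^3 per well, left overnight, then exposed to test compounds at designated concentrations or DMSO vehicle for 72 h in fresh medium. Viability was read by MTT; triplicates, repeated at least twice.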
Background: Tetrazolium dyes change colour on reduction, which living cells bring about.

A further data set has as its system 22Rv1 cells. The data set can be described thus: MTT assay (cytotoxicity), 22Rv1 cells. In kind it is cell-based. In outline: as §1
The next data set deals with DU145 cells. Kind of data set: MTT assay (cytotoxicity), DU145 cells. The class given is cell-based. Particulars: 72 h. The method, then: (§2) MTT assays: LNCaP, 22Rv1, Du145, H1975, A549, MB231 and MCF-7 cells are maintained in RPMI 1640 supplemented with 10% FBS. Cells were seeded at a density of 6-7×10^3 cells per well in 96-well plates. After overnight incubation, cells in fresh RPMI 1640 supplemented with 10% FBS were exposed to DMSO vehicle control or test compounds at designated concentrations for 72 h. Viable cells were evaluated by MTT assays. Experiments were performed in triplicate and repeated at least twice.

Data set [1] in a line: MTT assay (cytotoxicity), LNCaP cells. The note with it: human, LNCaP cells, 72 h treatment, Table 6.1. In kind it is cell-based. In short, it runs like this: as §1
Data set [2] in a line: MTT assay (cytotoxicity), 22Rv1 cells. In kind it is cell-based. Particulars: human, 22Rv1 cells, 72 h treatment, Table 6.1. In short, it runs like this:
as §1

A short description of data set [3]: MTT assay (cytotoxicity), H1975 cells. The class given is cell-based. The note with it: human, 72 h treatment, Table 6.1. Here is the method: as §2
Data set [4] in a line: MTT assay (cytotoxicity), A549 cells. The class given is cell-based. Particulars: human, 72 h treatment, Table 6.1. Here is the method: as §2
Data set [5] is described as follows: MTT assay (cytotoxicity), MB231 cells. The note with it: human, 72 h treatment, Table 6.1. The class given is cell-based. Here is the method:
as §2

The nature of data set [6]: MTT assay (cytotoxicity), MCF-7 cells. In kind it is cell-based. The note with it: human, 72 h treatment, Table 6.1. Here is the method: as §2
Data set [7] is described as follows: MTT assay (72 h), liver hepatocellular carcinoma cell line of Table 6.1. In kind it is cell-based. Particulars: human, HepG2 cells (liver hepatocellular carcinoma), 72 h treatment, read-out: Cytotoxicity (IC50, μM) HepG2.
The test system of the next data set is H1975 cells. The data set can be described thus: MTT assay (cytotoxicity), H1975 cells. In kind it is cell-based. The note with it: 72 h treatment, Table 6.1. The method, then:
as §2

In another data set the test system is A549 cells. Kind of data set: MTT assay (cytotoxicity), A549 cells. The class given is cell-based. Particulars: 72 h treatment, Table 6.1. The method, then: as §2
The next data set concerns MB231 cells. The data set can be described thus: MTT assay (cytotoxicity), MB231 cells. The class given is cell-based. Particulars: 72 h treatment, Table 6.1. The method, then: as §2
The test system of a further data set is MCF-7 cells. The data set can be described thus: MTT assay (cytotoxicity), MCF-7 cells. The class given is cell-based. The note with it: 72 h treatment, Table 6.1. The method, then:
as §2

Data set [8] has as its system liver hepatocellular carcinoma. Kind of data set: MTT assay (72 h), liver hepatocellular carcinoma cell line of Table 6.1. In kind it is cell-based. The note with it: HepG2 cells, 72 h treatment, read-out: Cytotoxicity (IC50, μM) HepG2.
In another data set the test system is VP16-AR(507-919). Kind of data set: VP16-AR(507-919) (NTD-deleted) PSA-luc reporter assay. The note with it: 10 nM DHT, 24 h; PC3 or HEK293 cells.
[9] abbreviates: LNCaP cells, 72 h treatment, Table 6.1.
Where [10] appears, read: 22Rv1 cells, 72 h treatment, Table 6.1.

Consider `O=C(Nc1cccc(Br)c1)Nc1cc(NC(=O)Nc2cccc(C(F)(F)F)c2)cc(C(F)(F)F)c1` [Compound 973], for which the “inhibition of IRF3-AR(1-547)-dependent ISRE-luc reporter activity” value at IRF3DBD-AR(1-547) is “potently inhibit”. The “activity against wild-type IRF3 (ISRE-luc)” value (from here on “activity … (ISRE-luc)”) on full-length IRF3 was “inactive”.

Broadly, the IC50 is the concentration that gives 50% inhibition. In the case of `O=C(N/C=C/c1cc(C(F)(F)F)cc(C(F)(F)F)c1)Nc1cnccn1` [Compound 528], the IC50 with LNCaP cells (72 h, Table 2.1) is 0.12 µM; in the data set on LNCaP cells (setting [9]), 0.12 µM; with 22Rv1 cells (setting [10]), under 1 µM; in the data set with 22Rv1 cells (72 h, Table 2.1) it was under 1 µM; with DU145 cells (Table 2.1), under 1 µM. Further, the “inhibition of IRF3-AR(1-547)-dependent ISRE-luc reporter activity” value against IRF3DBD-AR(1-547) was “potently inhibit”. Further, the “activity … (ISRE-luc)” value on full-length IRF3 was “inactive”.

Regarding `O=C(Nc1cccc(C(F)(F)F)c1)Nc1ccc(C(=O)Nc2ccccc2F)c(C(F)(F)F)c1` [Compound 822], the IC50 at 72 h came to 3 µM in [1]; 4 µM in data set [2]; 6.3 µM in data set [3]; 6 µM in data set [4]; 8.1 µM in [5]; 4.5 µM in data set [6]. Besides, the IC50 at 72 h in data set [7] is 3.2 µM.

As to `N#Cc1ccc(NC(=O)N/C=C/c2cccc(C(F)(F)F)c2)cc1C(F)(F)F` [Compound 410], the IC50 in the data set on LNCaP cells (72 h, Table 2.2) stood at 4.4 µM; in the data set on LNCaP cells (setting [9]), 1.8 µM; with 22Rv1 cells (setting [10]) it was 2.5 µM; with DU145 cells (Table 2.2) it was 10.4 µM; with H1975 cells it was 2.5 µM; with A549 cells, 2.7 µM. In addition, the IC50 with MB231 cells amounted to 4 µM; in the data set with MCF-7 cells it was 2.6 µM; in data set [8] it was 0.92 µM. Besides, on IRF3DBD-AR(1-547), the “inhibition of IRF3-AR(1-547)-dependent ISRE-luc reporter activity” value was “potently inhibit”. For the same compound, the “activity … (ISRE-luc)” value on full-length IRF3 is “inactive”. Also, the “inhibition of DHT-induced activation of VP16-AR(507-919) (PSA-luc)” value in the data set on VP16-AR(507-919) was “inactive”.
